Results taken from PMC9947975, “Design, Synthesis, and Biological Evaluation Studies of Novel Naphthalene-Chalcone Hybrids As Antimicrobial, Anticandidal, Anticancer, and VEGFR-2 Inhibitors” (ACS Omega, 2023).
Converted amounts (≈) assume the structure as drawn. “And” between values parts separate entries of the source, which are not always exact repeats. Identical values can stand only once.

Experiments:
[1] = test system: S. epidermidis (ATCC 12228); assay: Antibacterial activity, MIC50 by resazurin fluorometric measurement; assay type: cell-based, Staphylococcus epidermidis
Procedure: (§1) Obtained compounds (2a–2j) were evaluated for antibacterial activity against Escherichia coli (E. coli) (ATCC 25922), Pseudomonas aeruginosa (P. aeruginosa) (ATCC 27853), […] (E. faecalis) (ATCC 2942), Bacillus subtilis (B. subtilis) (ATCC 6051), Staphylococcus aureus (S. aureus) (ATCC 29213), and Staphylococcus epidermidis (S. epidermidis) (ATCC 12228). MIC50 values were determined via fluorometric measurements, using resazurin solution.[13] Azithromycin was used as a standard drug in the antibacterial activity test.
(§2) The antimicrobial activity of obtained derivatives (2a–2j) was screened on six bacterial and three fungal strains according to the standard procedure of CLSI[20] as described in the previous study.[21] The antibacterial activities of the obtained compounds were screened against B. subtilis (ATCC 6051), E. coli (ATCC 25922), E. faecalis (ATCC 2942), P. aeruginosa (ATCC 27853), S. aureus (ATCC 29213), and S. epidermidis (ATCC 12228). The obtained compounds were evaluated for anticandidal activity against C. albicans (ATCC 24433), C. krusei (ATCC 6258), and C. parapsilopsis (ATCC 22019). For antibacterial activity, azithromycin was utilized as a reference drug, whereas voriconazole and fluconazole were used for anticandidal activity.

E. faecalis (ATCC 2942) = assay: as above; assay type: cell-based, Enterococcus faecalis
Procedure: as §1, §2

[2] = test system: healthy mouse fibroblast cell (NIH3T3); assay: MTT cytotoxicity test on healthy cells; assay type: cell-based; settings: 24-h treatment, means of quartet assays ± SEM
Procedure: (§3) The MTT test was performed using 3 different cell lines for calculated IC50 values of obtained compounds. […] For this purpose, the cytotoxic effects of the compounds against the healthy mouse fibroblast cell (NIH3T3) were investigated.
(§4) The 3-(4,5-dimethylthiazol-2-yl)-2,5-diphenyltetrazolium salt reduction method, or MTT assay, is used to measure the metabolic activity of live cells. […] Doxorubicin is used as a therapeutic drug. MTT assays were carried out as previously explained.[19]

carcinogenic cell lines [3] = assay: Flow cytometric analysis of apoptosis and necrosis (Apoptosis, Necrosis and Healthy Cell Quantitation Kit Plus); assay type: cell-based; settings: IC50 concentration, 24-h incubation
C. albicans (ATCC 24433) = assay: Anticandidal activity, MIC50 by resazurin fluorometric measurement; assay type: cell-based, Candida albicans
Procedure: (§5) Obtained compounds (2a–2j) were evaluated for anticandidal activity against Candida albicans (C. albicans) (ATCC 24433), Candida krusei (C. krusei) (ATCC 6258), and Candida parapsilopsis (C. parapsilopsis) (ATCC 22019). MIC50 values were determined via fluorometric measurements, using resazurin solution.[13] Voriconazole and fluconazole were used as a standard drug in the anticandidal activity test. […] In general, it is seen that the 2-methoxyethyl substituent increases the anticandidal activity.
as §2

carcinogenic cell lines [4] = assay: Flow cytometric analysis of apoptosis and necrosis (Apoptosis, Necrosis and Healthy Cell Quantitation Kit Plus); assay type: cell-based; settings: IC50 concentration, 24-h incubation; remark: listed apart in the source
From the text: The flow cytometer was used to calculate the percentages of apoptotic and necrotic cells in four different quadrants, which are denoted by the letters “UL, UR, LL, LR” (Upper Left, Upper Right, Lower Left, Lower Right). The four distinct quadrants in the diagram represent the following areas, respectively: Apoptotic or early apoptotic cells, LR: CF488A+/(EthD-III)-; necrotic or late apoptotic cells, […]: CF488A+/(EthD-III)+; intact cells, LL: CF488A/(EthD-III); and dead or necrotic cells, UR: CF488A+/(EthD-III)+. The IC50 concentration of each substance was used in administration.
Death pathway of the carcinogenic cell lines was detected by Apoptosis, Necrosis and Healthy Cell Quantitation Kit Plus (Cat: 30066, Biotium, Hayward, CA, USA)[22] as reported in the manufacturer’s instruction. The IC50 values for doxorubicin and compound 2j were applied. Cells were collected by centrifugation at 1200 rpm for 5 min following a 24-h incubation period. It was washed 2 times with PBS, centrifuged and turned into pellets. One ×10^6 cells/mL of annexin were suspended in V-FITC binding buffer. Ethidium iodide ([…]), Hoestch 1 mL, and annexin V-FITC ([…]) were added to stain cells and using the CytoFLEX Flow Cytometer (Beckman Coulter Life Sciences, USA) and CytExpert for CytoFLEX Acquisition and Analysis Software Version 2.2.0.97 instrument. Fluorescence measurements were made using a flow cytometer in accordance with the instrument procedure.

E. coli (ATCC 25922) = assay: Antibacterial activity, MIC50 by resazurin fluorometric measurement; assay type: cell-based; settings: Escherichia coli, ATCC25922; means of triplicate assays
Procedure: as §1, §2

[5] = test system: P. aeruginosa (ATCC 27853); assay: as above; assay type: cell-based; settings: Pseudomonas aeruginosa, ATCC27853; means of triplicate assays
Procedure: as §1, §2

B. subtilis (ATCC 6051) = assay: as above; assay type: cell-based; settings: Bacillus subtilis, ATCC6051; means of triplicate assays
Procedure: as §1, §2

C. krusei (ATCC 6258) = assay: Anticandidal activity, MIC50 by resazurin fluorometric measurement; assay type: cell-based, Candida krusei
Procedure: as §5, §2

S. aureus (ATCC 29213) = assay: Antibacterial activity, MIC50 by resazurin fluorometric measurement; assay type: cell-based, Staphylococcus aureus
Procedure: as §1, §2

VEGFR-2 enzyme = biological target: T1, VEGFR-2 enzyme (Homo sapiens, UniProt P35968); assay: VEGFR-2 inhibition assay (VEGFR-2 Kinase Assay Kit); assay type: biochemical; settings: serial 11 dilutions, 1000 μM–0.01 μM
T1 construct: purchased
T1 sequence (P35968 20-1356): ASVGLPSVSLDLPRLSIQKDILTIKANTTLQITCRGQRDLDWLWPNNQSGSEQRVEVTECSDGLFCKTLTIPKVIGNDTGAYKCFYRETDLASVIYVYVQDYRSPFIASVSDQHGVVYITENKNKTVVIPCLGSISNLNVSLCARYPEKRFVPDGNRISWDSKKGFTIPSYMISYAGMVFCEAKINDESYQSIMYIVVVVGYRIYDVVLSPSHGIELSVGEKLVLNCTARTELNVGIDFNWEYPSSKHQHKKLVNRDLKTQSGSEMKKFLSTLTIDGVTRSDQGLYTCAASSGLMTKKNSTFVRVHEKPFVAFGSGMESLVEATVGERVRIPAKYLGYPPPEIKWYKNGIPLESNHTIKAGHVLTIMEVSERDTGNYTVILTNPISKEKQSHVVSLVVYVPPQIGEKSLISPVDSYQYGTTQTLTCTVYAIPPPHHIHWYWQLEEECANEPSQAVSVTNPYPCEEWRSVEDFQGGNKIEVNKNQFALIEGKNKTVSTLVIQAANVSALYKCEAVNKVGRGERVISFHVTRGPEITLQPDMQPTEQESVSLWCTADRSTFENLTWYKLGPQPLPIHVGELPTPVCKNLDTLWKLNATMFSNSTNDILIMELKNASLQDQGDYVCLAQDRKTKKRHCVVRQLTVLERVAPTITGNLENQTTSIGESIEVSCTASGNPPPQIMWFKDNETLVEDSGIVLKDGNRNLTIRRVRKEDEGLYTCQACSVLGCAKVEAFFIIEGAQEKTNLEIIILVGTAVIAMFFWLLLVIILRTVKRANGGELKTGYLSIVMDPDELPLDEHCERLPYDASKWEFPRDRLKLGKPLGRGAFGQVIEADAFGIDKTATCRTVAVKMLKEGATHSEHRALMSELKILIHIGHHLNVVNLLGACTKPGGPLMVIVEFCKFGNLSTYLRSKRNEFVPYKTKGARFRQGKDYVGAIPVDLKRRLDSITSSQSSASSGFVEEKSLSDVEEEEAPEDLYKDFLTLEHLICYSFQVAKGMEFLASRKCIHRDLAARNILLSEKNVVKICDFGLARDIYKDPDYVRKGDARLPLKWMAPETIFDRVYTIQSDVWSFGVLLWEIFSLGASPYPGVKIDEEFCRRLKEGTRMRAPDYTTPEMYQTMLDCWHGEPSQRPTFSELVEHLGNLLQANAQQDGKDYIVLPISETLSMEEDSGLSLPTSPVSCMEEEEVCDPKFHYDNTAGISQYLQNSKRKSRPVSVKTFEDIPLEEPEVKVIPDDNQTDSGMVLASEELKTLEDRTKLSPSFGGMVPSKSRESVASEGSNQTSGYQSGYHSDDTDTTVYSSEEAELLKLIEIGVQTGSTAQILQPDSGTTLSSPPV
Procedure: The VEGFR-2 Kinase Assay Kit (Available from ref ([15])) was used for the VEGFR-2 inhibition. The experiment was performed in vitro according to the kit procedure. Serial 11 dilutions of compound 2j were prepared at concentrations of 1000 μM–0.01 μM. The IC50 value for compound 2j was calculated using the kit procedure.
The VEGFR-2 Kinase Assay Kit (available from ref ([15])) was used for the VEGFR-2 inhibition. The experiment was performed in vitro according to the kit procedure.

[6] = test system: C. parapsilopsis (ATCC 22019); assay: Anticandidal activity, MIC50 by resazurin fluorometric measurement; assay type: cell-based, Candida parapsilopsis; settings: Candida, ATCC22019; means of triplicate assays
Procedure: as §5, §2

A549 cell line [7] = assay: Analysis of mitochondrial membrane potential (MMP) by flow cytometry, JC-1 dye; assay type: cell-based; settings: A549, IC50 concentration, 24-h incubation
Procedure: After a 24-h incubation period, mitochondrial membrane potential was measured with JC-1 dye.
The BD Mitoscreen Mitochondrial Membrane Potential Detection JC-1 Kit (available from ref ([23])) was used for the MMP test. First, A549 cells were seeded in 25 mL flasks and incubated for 24 h in a 5% CO2 incubator. […] At the end of this period, cells were collected and centrifuged in accordance with the kit contents. After the upper part was removed, JC-1 dye was added and incubated at 37 °C for 10–15 min. At the end of the period, it was washed 2 times with washing solution and reading was done with the appropriate procedure using the CytoFLEX Flow Cytometer (Beckman Coulter Life Sciences, USA) and CytExpert for CytoFLEX Acquisition and Analysis Software Version 2.2.0.97.

HepG2 cell line = assay: MTT cytotoxicity test; assay type: cell-based; settings: Homo sapiens, 24-h treatment, means of quartet assays ± SEM
Procedure: as §3, §4

A549 cell line [8] = assay: MTT cytotoxicity test; assay type: cell-based; settings: for IC50: MTT, 24-h treatment, means of quartet assays ± SEM
Procedure: as §3, §4

- MIC50 ([1]; Staphylococcus epidermidis, ATCC12228, means of triplicate assays, read-out: MIC50 S. epidermis): 31.2 µg/mL (≈ 78 µM)
- MIC50 S. epidermis ([1]; means of triplicate assays): 31.3 µg/mL (≈ 78.1 µM)
- MIC50 (E. faecalis (ATCC 2942); Enterococcus faecalis, ATCC2942, means of triplicate assays): 15.6 µg/mL (≈ 38.9 µM)
- MIC50 E. faecalis (E. faecalis (ATCC 2942); means of triplicate assays): 15.7 µg/mL (≈ 39.2 µM)
- MIC50 (C. albicans (ATCC 24433); Candida albicans, ATCC24433, means of triplicate assays): 15.6 µg/mL (≈ 39 µM)
- MIC50 C. albicans (C. albicans (ATCC 24433); means of triplicate assays): 15.6 µg/mL (≈ 38.9 µM)
- MIC50 (E. coli (ATCC 25922)): > 100 µg/mL
- MIC50 [5]: 62.5 µg/mL (≈ 156 µM)
- MIC50 (B. subtilis (ATCC 6051)): > 100 µg/mL
- MIC50 (C. krusei (ATCC 6258); Pichia kudriavzevii, ATCC6258, means of triplicate assays): 15.6 µg/mL (≈ 39 µM)
- MIC50 C. krusei (C. krusei (ATCC 6258); means of triplicate assays): 15.6 µg/mL (≈ 38.9 µM)
- MIC50 (S. aureus (ATCC 29213); Staphylococcus aureus, ATCC29213, means of triplicate assays): 31.2 µg/mL (≈ 78 µM)
- MIC50 S. aureus (S. aureus (ATCC 29213); means of triplicate assays): 31.3 µg/mL (≈ 78.1 µM)
- IC50 (VEGFR-2 enzyme): 0.098 ± 0.005 µM
- MIC50 [6]: > 100 µg/mL
SMILES: COCCN1CCN(c2ccc(C(=O)C=Cc3ccc4ccccc4c3)cc2)CC1 [2j, 1-(4-(4-(2-Methoxyethyl)piperazin-1-yl)phenyl)-3-(naphthalen-2-yl)prop-2-en-1-one]
- IC50 [2]: 15.6 ± 0.75 µM
- late apoptosis (Q1-UR) (carcinogenic cell lines [3]): 10.26% and 10.3%
- early apoptosis (Q1-LR) (carcinogenic cell lines [4]): 3.97%
- intact cells (Q1-LL) (carcinogenic cell lines [4]): 67.71%
- necrosis (Q1-UL) (carcinogenic cell lines [4]): 18.06% and 18.1%
- rate of apoptosis (early + late apoptosis) (carcinogenic cell lines [4]): 14.230% and 14.2%
- mitochondrial membrane potential (P3) (A549 cell line [7]): 58.870%
- IC50 (HepG2 cell line): 38.9 ± 1.34 µM
- IC50 (A549 cell line [8]; Homo sapiens, A549, 24 h): < 10 µM
- IC50 (A549 cell line [8]): 7.8 µM and 7.83 µM
- selectivity index (IC50 value vs healthy cell/IC50 value vs cancer cell) (A549 cell line [8]; NIH3T3 vs A549 cell line): 1.990
